Data from patent publication US20230323358A1, “COMPOSITION AND USE OF siRNAs AGAINST VEGFR2 AND TGF-BETA1 IN COMBINATION THERAPY FOR CANCER” (Sirnaomics, Inc., priority 2021, published 2023).
Read-outs that look alike come from different tables or passages of the source. Oligonucleotides are written 5' to 3', each unit as a sugar letter and its base; * is a phosphorothioate linkage, no mark a phosphodiester; rarer units and linkages stand in square brackets, end groups in braces. Plain capitals give the bases only. {P} = phosphate; d = 2'-deoxy (DNA); m = 2'-O-methyl; r = 2'-OH (RNA); f = 2'-fluoro

Assays:
B 16-F0 cells = test: In vivo pharmacodynamics on melanoma (B16) in immunocompetent mouse model; settings: positive control, 4 mg/kg i.p. QW
Description: The STP355 drug used in this example is the STP355 drug prepared in Example 9. C57BL/6J mice were inoculated with B 16-F0 cells subcutaneously on the back, inoculation volume: 1×10^6/100 µL/mice, 50 mice were inoculated, location: the right back of the mice. The average tumor volume was 80~100 mm^3 and started to be administered in groups. The dose of 2 mg/kg was administered intravenously, twice a week, for a total of 8 administrations, and the positive control group was administered with cisplatin, […], A total of 8 doses were administered.

TGF-β1 [1] = test: EC50 of TGF-β1 siRNA candidates before and after modification, knockdown in cells; assay type: cell-based, human
Description: DLD-1, RKO, U87-MG and PANC-1 cells were seeded into 24-well cell plates (1 × 10^5/well), and then siRNAs (21mer or negative control) were transfected with commercial transfection reagent (lipo2000). The siRNA transfection concentration was 100 nM. Untreated cells were set as a blank control. Total RNA was extracted from cells 24 h after transfection. Reverse transcription was performed using the kit to obtain cDNA according to the manufacturer’s instructions. Relative levels of target gene TGF- β1 mRNA expression were determined by real-time PCR, normalized to the housekeeping gene β-actin. Gene knockdown effectiveness was expressed as a percentage of the blank control. […] Therefore, TF1-21-hm3# and TF1-21-hm6# were selected as candidate sequences, and these two sequences were modified (see Table 4 for modified sequences).
The EC50 of candidate sequences before and after modification in different cells (U87-MG, DLD-1, SK-Hep-1, BxPC3, A549, HUCCT, PANC-1 and RKO) were compared. U87-MG, DLD-1, SK-Hep-1, BxPC3, A549, HUCCT, PANC-1 and RKO cells were seeded in 24-well cell plates (1 × 10^5/well) and transfected with multiple concentration gradients in different cells for siRNA candidates (modified or unmodified), use the same procedure as for primary screening. Finally, the data were plotted using the software GraphPad Prism8 and EC50 values were calculated.

TGF-β1 [2] = test: as above; assay type: cell-based; settings: 293T cells, homo, 24h, 24well (second TGF-β1 table)
MC38-hPDL1 cells = test: In vivo pharmacodynamics on humanized PDL1 locus colorectal cancer tumors (MC38-hPDL1) in immunocompetent mice; set-up: species or system C57BL/6J mice; settings: positive control 4mpk, BIW*4W, I.P.
Description: The STP355 drug used in this example is the STP355 drug prepared in Example 9. C57BL/6J mice were subcutaneously inoculated with humanized PDL1 locus colorectal cancer tumor MC38-hPDL1 cells on the back, inoculation volume: 1×10^6/100 µL/mouse, inoculation location: above the right thigh of the mouse. When the average tumor volume reached 100 mm^3, group administration was started, divided into 4 groups, 8 animals/group. In this experiment, the doses of 4 mg/kg and 6 mg/kg were tested, and a model group was established, and the positive control group Tecentrip (atezolizumab) . The drug was administered twice a week for a total of 8 times. On the 0th, 3rd, 7th, 10th, 14th, 17th, 21st, 24th and 28th days, the tumor volume was measured with a vernier caliper, and the tumor growth inhibition rate TGI% was calculated according to the formula.
Calculation formula: TGI % = [1-(Ti-T0)/ (Vi-V0)] ×100%. • Ti represents the mean tumor volume of the treatment group at a certain time point, • T0 represents the mean tumor volume of the treatment group on day 0, • Vi represents the mean tumor volume of the model group at the same time point as Ti, • V0 represents the mean tumor volume of the model group at day 0.

[3] = A549 cells, homo, 24 h, 24well (Table 6), read-out: EC50 (nM, 24 h, 24well) A549
[4] = A549 cells, homo, 24h, 24well (second TGF-β1 table), read-out: EC50 (24h, nM, 24well) A549
[5] = BxPC3 cells, homo, 24 h, 24well (Table 6), read-out: EC50 (nM, 24 h, 24well) BxPC3
[6] = DLD-1 cells, Homo, 24h, 24well (second TGF-β1 table), read-out: EC50 (24h, nM, 24well) DLD-1
[7] = DLD-1 cells, homo, 24 h, 24well (Table 6), read-out: EC50 (nM, 24 h, 24well) DLD-1
[8] = Hucct cells, homo, 24 h, 24well (Table 6), read-out: EC50 (nM, 24 h, 24well) Hucct
[9] = Hucct cells, homo, 24h, 24well (second TGF-β1 table), read-out: EC50 (24h, nM, 24well) Hucct
[10] = PANC-1 cells, homo, 24 h, 24well (Table 6), read-out: EC50 (nM, 24 h, 24well) PANC-1
[11] = PANC-1 cells, homo, 24h, 24well (second TGF-β1 table), read-out: EC50 (24h, nM, 24well) PANC -1
[12] = RKO cells, homo, 24 h, 24well (Table 6), read-out: EC50 (nM, 24 h, 24well) RKO
[13] = RKO cells, homo, 24h, 24well (second TGF-β1 table), read-out: EC50 (24h, nM, 24well) RKO
[14] = SK-Hep1 cells, homo, 24 h, 24well (Table 6), read-out: EC50 (nM, 24 h, 24well) SK-Hep1
[15] = U87MG cells, homo, 24 h, 24well (Table 6), read-out: EC50 (nM, 24 h, 24well) U87MG
[16] = U87MG cells, homo, 24h, 24well (second TGF-β1 table), read-out: EC50 (24h, nM, 24well) U87M G
[17] = SK-Hep 1 cells, homo, 24h, 24well (second TGF-β1 table), read-out: EC50 (24h, nM, 24well) SK-Hep 1

Molecule | EC50 (TGF-β1 [1]; [3]) [nM] | EC50 (TGF-β1 [1]; [4]) [nM] | EC50 (TGF-β1 [1]; [5]) [nM] | EC50 (TGF-β1 [1]; [6]) [nM] | EC50 (TGF-β1 [1]; [7]) [nM] | EC50 (TGF-β1 [1]; [9]) [nM] | EC50 (TGF-β1 [1]; [10]) [nM] | EC50 (TGF-β1 [1]; [11]) [nM] | EC50 (TGF-β1 [1]; [12]) [nM] | EC50 (TGF-β1 [1]; [13]) [nM] | EC50 (TGF-β1 [1]; [14]) [nM] | EC50 (TGF-β1 [1]; [15]) [nM] | EC50 (TGF-β1 [1]; [16]) [nM] | EC50 (TGF-β1 [2]) [nM] | further results
N.N.[Cl][Pt][Cl] [cisplatin] |  |  |  |  |  |  |  |  |  |  |  |  |  |  | anti-tumor effect (B 16-F0 cells): significant anti-tumor effects
TF1-21-hm3#: siRNA targeting TGF-β1 mRNA; sense SEQ ID 23, antisense SEQ ID 33 (sense AACUAUUGCUUCAGCUCCATT; antisense UGGAGCUGAAGCAAUAGUUTT; sugars from the 5' end r19 d2, backbone not given here) | 1.36 | 1.4 | 0.25 | 0.2 | 0.15 | 0.029 | 6.65 | 6.6 | 0.1 | 0.1 | 3.16 | 0.29 | 0.3 |  | EC50 (TGF-β1 [1]; BxPC 3 cells, homo, 24h, 24well (second TGF-β1 table), read-out: EC50 (24h, nM, 24well) BxPC 3): 11.9 nM; EC50 (TGF-β1 [1]; [8]): 0.03 nM
TF1-21-hm3#mod: Modified (2′F, 2′OME, phosphorylation) siRNA targeting TGF-β1; sense SEQ ID 147, antisense SEQ ID 151 (sense mAmAmCmUmAmUfUfGfCmUmUmCmAmGmCmUmCmCmAdTdT; antisense {P}-mUfGmGmAmGmCmUmGmAmAmGmCmAfAmUmAmGmUmUdTdT) | 0.04 | 0.04 | 0.17 |  | 0.02 |  | 0.02 |  | 0.08 | 0.08 | 2.64 | 1.48 |  |  | 
TF1-21-hm6#: siRNA targeting TGF-β1 mRNA; sense SEQ ID 26, antisense SEQ ID 36 (sense CGGCAGCUGUACAUUGACUTT; antisense AGUCAAUGUACAGCUGCCGTT; sugars from the 5' end r19 d2, backbone not given here) | 3.02 | 3 | 0.03 | 0.9 | 0.85 | 0.007 | 12.7 | 12.7 | 0.05 | 0.048 | 0.22 | 0.12 | 0.1 | 0.11 | EC50 (TGF-β1 [1]; [8]): 0.01 nM
TF1-21-hm6#mod: Modified (2′F, 2′OME, phosphorylation) siRNA targeting TGF-β1; sense SEQ ID 148, antisense SEQ ID 152 (sense mCmGmGmCmAmGfCfUfGmUmAmCmAmUmUmGmAmCmUdTdT; antisense {P}-mAfGmUmCmAmAmUmGmUmAmCmAmGfCmUmGmCmCmGdTdT) | 0.22 |  | 0.01 |  |  |  |  |  | 0.04 |  | 0.59 | 0.09 |  | 0.1 | 
TF1-21-hm7#: siRNA targeting TGF-β1 mRNA; sense SEQ ID 27, antisense SEQ ID 37 (sense GGCAGCUGUACAUUGACUUTT; antisense AAGUCAAUGUACAGCUGCCTT; sugars from the 5' end r19 d2, backbone not given here) |  | 0.1 |  | 0.7 |  | 0.031 |  | 12 |  | 0.1 |  |  | 0.6 |  | 
TF1-20190711-1#: siRNA targeting TGF-β1 mRNA; sense SEQ ID 1, antisense SEQ ID 2 (sense GCAGAGUACACACAGCAUATT; antisense UAUGCUGUGUGUACUCUGCTT; sugars from the 5' end r19 d2, backbone not given here) |  |  |  |  |  | 0.002 |  |  |  |  |  |  |  | 0.08 | EC50 (TGF-β1 [1]; [17]): 1.6 nM
TF1-20190711-1#mod: Modified siRNA targeting TGF-β1; sense SEQ ID 149, antisense SEQ ID 153 (sense GCAGAGUACACACAGCAUATT; antisense UAUGCUGUGUGUACUCUGCTT; sense: sugars from the 5' end m6 f3 m10 d2, backbone not given here; antisense: sugars from the 5' end mfmmmmmmmmmmmfmmmmmdd, 5' {P}, backbone not given here) |  |  |  |  |  |  |  |  |  |  |  |  |  | 0.25 | 
TF1-20190711-5#: siRNA targeting TGF-β1 mRNA; sense SEQ ID 9, antisense SEQ ID 10 (sense GAGUACACACAGCAUAUAUTT; antisense AUAUAUGCUGUGUGUACUCTT; sugars from the 5' end r19 d2, backbone not given here) |  |  |  |  |  |  |  |  |  |  |  |  |  |  | EC50 (TGF-β1 [1]; [17]): 9.8 nM
atezolizumab [Tecentrip] |  |  |  |  |  |  |  |  |  |  |  |  |  |  | tumor weight versus model group (MC38-hPDL1 cells): significantly lower than the model group; tumor volume versus model control group (MC38-hPDL1 cells; day 7 to day 28): significantly smaller than that of the model control group
